Source: BigSolDB 2.1

CS(=O)(=O)c1cccc(C[C@H](NC(=O)c2c(Cl)cc3c(c2Cl)CCN(C(=O)c2ccc4ccoc4c2)C3)C(=O)O)c1
Settings	solubility (mole fraction)
in PEG-400, 288.15 K	0.0757
in PEG-400, 293.15 K	0.0767
in PEG-400, 298.15 K	0.0776
in PEG-400, 303.15 K	0.0786
in PEG-400, 308.15 K	0.0796

solubility (mole fraction)
Settings	288.15 K	293.15 K	298.15 K	303.15 K	308.15 K
in glycerin	0.000104	0.000118	0.000133	0.000151	0.000167
in propylene glycol	0.00102	0.00119	0.00138	0.00161	0.00183
in transcutol	0.015	0.0159	0.0168	0.0178	0.0187
in water	1.49e-06	1.85e-06	2.31e-06	2.79e-06	3.37e-06
